Laboratory results: PMC117120 (BMC Biochemistry, 2002)
Residue numbers refer to the chain shown, from its start. Where two headings read alike, the source gives them in different places.

Tests used:
Y152A mutant 5-HT3ASR = target: T1, Y152A mutant 5-HT3ASR (Mus musculus, UniProt P23979, Y153A); assay: Whole cell patch clamp, tsA201 cells transfected with Y152A cDNA; type: cell-based; conditions: for response amplitude: 8 s, representative trace
T1 sequence (P23979 24-483 isoform P23979-2 Y153A): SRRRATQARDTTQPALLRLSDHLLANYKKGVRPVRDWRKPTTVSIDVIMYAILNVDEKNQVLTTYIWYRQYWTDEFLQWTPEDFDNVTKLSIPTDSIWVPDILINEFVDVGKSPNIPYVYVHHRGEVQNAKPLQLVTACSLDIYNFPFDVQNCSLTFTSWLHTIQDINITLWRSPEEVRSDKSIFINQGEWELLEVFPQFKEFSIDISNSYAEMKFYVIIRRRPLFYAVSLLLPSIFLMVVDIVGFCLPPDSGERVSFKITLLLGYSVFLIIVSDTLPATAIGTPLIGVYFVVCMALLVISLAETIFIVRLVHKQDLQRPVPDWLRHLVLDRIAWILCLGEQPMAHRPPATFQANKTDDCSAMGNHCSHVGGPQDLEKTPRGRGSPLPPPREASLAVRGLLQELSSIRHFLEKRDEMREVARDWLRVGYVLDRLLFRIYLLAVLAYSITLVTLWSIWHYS

Y140A mutant 5-HT3ASR = target: T2, Y140A mutant 5-HT3ASR (Mus musculus, UniProt P23979, Y141A); assay: Whole cell patch clamp, cells transfected with Y140A cDNA; type: cell-based; conditions: 5-HT concentrations of up to 1 mM
T2 sequence (P23979 24-483 isoform P23979-2 Y141A): T1 sequence (P23979 24-483 isoform P23979-2 Y153A) with Y118A, A130Y

Y142A mutant 5-HT3ASR = target: T3, Y142A mutant 5-HT3ASR (Mus musculus, UniProt P23979, Y143A); assay: Whole cell patch clamp, cells transfected with Y142A cDNA; type: cell-based; conditions: 5-HT concentrations of up to 1 mM
T3 sequence (P23979 24-483 isoform P23979-2 Y143A): T1 sequence (P23979 24-483 isoform P23979-2 Y153A) with Y120A, A130Y

wt 5-HT3ASR = target: T4, wt 5-HT3ASR (Mus musculus, UniProt P23979); conditions: for response amplitude: 4 s, representative trace
T4 sequence (P23979 24-483 isoform P23979-2 limits assumed): T1 sequence (P23979 24-483 isoform P23979-2 Y153A) with A130Y

SMILES: NCCc1c[nH]c2ccc(O)cc12 [5-HT, serotonin]
- time for response to plateau (Y152A mutant 5-HT3ASR): several seconds
- response amplitude (Y152A mutant 5-HT3ASR; 3.0 μM 5-HT): 0.10 nA
- response amplitude (Y152A mutant 5-HT3ASR; 100 μM 5-HT): 0.14 nA
- response amplitude (Y152A mutant 5-HT3ASR; 300.0 μM 5-HT): 0.57 nA
- response amplitude (Y152A mutant 5-HT3ASR; 1.0 mM 5-HT): 1.0 nA
- desensitization (Y152A mutant 5-HT3ASR; during the 8 s perfusion time): no desensitization
- whole cell response to 5-HT (Y140A mutant 5-HT3ASR): no responses
- whole cell response to 5-HT (Y142A mutant 5-HT3ASR): no responses
- desensitization (wt 5-HT3ASR): desensitized rapidly
- time to peak response (wt 5-HT3ASR): less than 80 ms
- response amplitude (wt 5-HT3ASR; 0.3 μM 5-HT): 0.03 nA
- response amplitude (wt 5-HT3ASR; 1.0 μM 5-HT): 0.96 nA
- response amplitude (wt 5-HT3ASR; 3.0 μM 5-HT): 2.5 nA
- response amplitude (wt 5-HT3ASR; 30.0 μM 5-HT): 4.4 nA
- response amplitude (wt 5-HT3ASR; 100.0 μM 5-HT): 3.9 nA
